Molecular target: T1, Aurora kinase A (Homo sapiens, UniProt O14965)
T1 sequence (O14965 whole entry): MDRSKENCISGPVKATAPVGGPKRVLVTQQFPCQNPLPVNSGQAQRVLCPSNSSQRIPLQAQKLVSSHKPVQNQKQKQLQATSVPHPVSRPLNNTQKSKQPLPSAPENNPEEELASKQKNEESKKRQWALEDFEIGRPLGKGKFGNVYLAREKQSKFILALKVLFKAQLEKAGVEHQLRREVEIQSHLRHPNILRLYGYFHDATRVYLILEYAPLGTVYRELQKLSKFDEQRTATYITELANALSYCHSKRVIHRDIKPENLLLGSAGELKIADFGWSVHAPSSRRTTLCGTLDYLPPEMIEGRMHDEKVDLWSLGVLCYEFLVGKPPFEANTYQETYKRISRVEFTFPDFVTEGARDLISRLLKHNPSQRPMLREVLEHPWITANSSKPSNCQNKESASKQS
Assay: The testing compound was diluted up to 100× final concentration in a 384-well plate. Transfer 250 nL of the compound dilution to a 384-well assay plate using Echo 550.

Structure (SMILES): Cc1cc(Nc2cc(F)cc(C[C@@]3(C(=O)O)CCN(Cc4cccc(Cl)c4F)[C@H](C)C3)n2)n[nH]1
- IC50: 1.1 nM
